Laboratory results as given in the NIST ThermoML archive (doi:10.1016/j.tca.2014.10.015).
Where “and” joins values, the source holds several entries; their conditions need not be identical. Equal entries are not always repeated. Numbers after ± are expanded uncertainties.

Settings: Liquid; for vapor or sublimation pressure: Transpiration method; for mass density: 293 K, 101.33 kPa, Pycnometric method

Q: What does the source list for `CCCCCCCCN=[N+]=[N-]` [1-azidooctane]?
A: vapor or sublimation pressure (276.2 K): 0.00625 ± 0.00035 kPa; vapor or sublimation pressure (279.8 K): 0.00904 ± 0.00048 kPa; vapor or sublimation pressure (282.5 K): 0.01172 ± 0.00062 kPa; vapor or sublimation pressure (285.8 K): 0.01548 ± 0.00082 kPa; vapor or sublimation pressure (289.4 K): 0.02119 ± 0.0011 kPa; vapor or sublimation pressure (292.2 K): 0.02751 ± 0.0014 kPa; mass density: 840 ± 20 kg/m3; vapor or sublimation pressure (293.2 K): 0.02911 ± 0.0015 kPa; vapor or sublimation pressure (296.2 K): 0.03707 ± 0.0019 kPa; vapor or sublimation pressure (300.2 K): 0.04808 ± 0.0025 kPa; vapor or sublimation pressure (302.1 K): 0.05805 ± 0.0031 kPa; vapor or sublimation pressure (303.1 K): 0.06504 ± 0.0034 kPa; vapor or sublimation pressure (307 K): 0.08345 ± 0.0044 kPa; vapor or sublimation pressure (310 K): 0.1089 ± 0.0056 kPa; vapor or sublimation pressure (313.9 K): 0.1355 ± 0.0071 kPa; vapor or sublimation pressure (317.9 K): 0.188 ± 0.0099 kPa; vapor or sublimation pressure (320.9 K): 0.2406 ± 0.012 kPa; vapor or sublimation pressure (321.8 K): 0.2385 ± 0.012 kPa; vapor or sublimation pressure (323.9 K): 0.2592 ± 0.014 kPa and 0.2683 ± 0.014 kPa; vapor or sublimation pressure (325.8 K): 0.3237 ± 0.018 kPa and 0.3236 ± 0.018 kPa and 0.3135 ± 0.017 kPa

Q: Which mass density does the source give for `CCCCCCCCCCN=[N+]=[N-]` [1-decyl azide] here?
A: 870 ± 20 kg/m3

Q: And the “vapor or sublimation pressure” value (299.1 K)?
A: 0.00431 ± 0.00024 kPa

Q: And the “vapor or sublimation pressure” value (304 K)?
A: 0.00666 ± 0.00035 kPa

Q: What about the “vapor or sublimation pressure” value (309 K) of the same molecule?
A: 0.01017 ± 0.00053 kPa

Q: And the “vapor or sublimation pressure” value (314 K)?
A: 0.01489 ± 0.00078 kPa

Q: And the “vapor or sublimation pressure” value (318.9 K)?
A: 0.02152 ± 0.0011 kPa

Q: And the “vapor or sublimation pressure” value (324 K)?
A: 0.03305 ± 0.0017 kPa

Q: What about the “vapor or sublimation pressure” value (329 K) of the same molecule?
A: 0.04744 ± 0.0025 kPa

Q: And the “vapor or sublimation pressure” value (333.9 K)?
A: 0.06769 ± 0.0035 kPa

Q: What about the “vapor or sublimation pressure” value (339 K) of the same molecule?
A: 0.0914 ± 0.0048 kPa

Q: What about the “vapor or sublimation pressure” value (344.1 K) of the same molecule?
A: 0.1347 ± 0.0069 kPa
